By CC50 is commonly meant the concentration that lowers cell viability or growth by half. Broadly, the pEC50 is −log10 of the EC50, conventionally taken in molar units. For orientation: pIC50 means the negative decadic logarithm of the IC50, by convention in mol/L.

The nature of series [1]: Cytotoxicity evaluation, CellTiter-Blue Cell Viability Assay. The class given is cell-based. Particulars: human, Zluc cells. In general terms: The colour change of resazurin is a common sign of viable cells or microbes.
Series [2] deals with HCV genotype 1b replicon in Huh-7-derived cell line (Zluc). Put plainly: HCV replicon assay (luciferase reporter). It counts as cell-based. Conditions: Hepatitis C virus; Zluc cells, 72 hours of incubation. The procedure: Huh-7-derived cell line (Zluc) that harbors an HCV genotype 1b replicon and a luciferase reporter gene was grown in Dulbecco's Modified Eagle Medium (DMEM) supplemented with 10% fetal bovine serum, 2 mM GlutaMAX, 1% MEM nonessential amino acids, 100 IU/mL penicillin, 100 μg/mL streptomycin, and 0.5 mg/mL Geneticin® (G418). For dose response testing the cells were seeded in 96-well plates at 7.5×10^3 cells per well in a volume of 50 μL, and incubated at 37° C./5% CO2. Drug solutions were made up freshly in Huh-7 media as 2× stocks. Ten additional 5-fold dilutions were prepared from these stocks in DMEM without G418. At least three hours after Zluc cells were seeded, drug treatment was initiated by adding 50 μL of drug dilutions to the plates in duplicate. Final concentrations of drug ranged from 100 μM to 0.0000512 μM. Cells were then incubated at 37° C./5% CO2. Alternatively, compounds were tested at two concentrations (1 μM and 10 μM). […] For this, media was removed from the plates via gentle tapping. […] The plates were shaken gently for 3 min at room temperature and luminescence was measured on a Victor^3 V 1420 multilabel counter (Perkin Elmer) with a 1 second read time using a 700 nm cut-off filter. The EC50 values were calculated from dose response curves from the resulting best-fit equations determined by Microsoft Excel and XLfit 4.1 software. […]
(A replicon is a self-replicating genome or part of one, used to study replication in cells.)

The target of series [3] is T1, wild-type HCV genotype 1b NS5B protein (recombinant HCV polymerase) (Hepatitis C virus genotype 1b, UniProt Q9WMX2).
T1 construct: HCV genotype 1b NS5B protein were used to generate recombinant HCV polymerases (with a deletion of the 21 carboxy terminal amino acids); made in house
Put plainly: HCV polymerase enzyme assay, wild-type. It counts as biochemical. The text has this: (§1) Test compounds in the form of nucleoside triphosphates were examined for inhibitory activity against purified HCV polymerase in a standard assay. Bacterial expression constructs encoding the approximately 65 kDa HCV genotype 1b NS5B protein were used to generate recombinant HCV polymerases (with a deletion of the 21 carboxy terminal amino acids). Both the wild-type genotype 1b protein and protein containing the S282T mutation were expressed and purified for use in the enzymatic activity assay.
(§2) The enzymatic activity assay measured the inhibitory effect of increasing concentrations of test compound on the incorporation of α-[^33P]-labeled nucleotide into trichloroacetic acid-precipitable material. Recombinant polymerase and synthetic RNA template were combined in reaction buffer containing ribonucleoside triphosphates, α-[^33P]-labeled nucleotide and eight concentrations of test compound in three-fold dilutions. […]
(§3) Reactions were terminated by the addition of ice-cold trichloroacetic acid and sodium pyrophosphate to promote precipitation of newly-synthesized ribonucleic acid. Precipitable material from the reactions was collected by filtration onto 96-well filter plates, washed extensively with water, and quantified by liquid scintillation.
(§4) The inhibitory activity of test compounds was determined by fitting results to dose-response curves using XLfit software.

The target in series [4] is T2, HCV genotype 1b NS5B protein containing the S282T mutation (Hepatitis C virus genotype 1b, UniProt Q9WMX2, S2701T).
T2 construct: HCV genotype 1b NS5B protein were used to generate recombinant HCV polymerases (with a deletion of the 21 carboxy terminal amino acids); made in house
Put plainly: HCV polymerase enzyme assay, S282T mutant. The class given is biochemical. Particulars: nucleoside triphosphate; S282T genotype 1b NS5B; 2 h at 30° C.
From the text: as §1, §2, §3, §4

pEC50, pIC50: −log10 of the molar value.

Compound `Nc1ccn([C@@H]2O[C@](F)(CO)[C@@H](O)[C@H]2F)c(=O)n1` [Compound 105] came in with a CC50 at 72 h in series [1] of over 50000 nM. Besides, in series [2], the pEC50 is 6.00 to 6.60.
Consider `O=c1ccn([C@@H]2O[C@](F)(COP(=O)(O)OP(=O)(O)OP(=O)(O)O)[C@@H](O)[C@H]2F)c(=O)[nH]1` [Compound 201], for which the negative logarithm of the IC50 (pIC50) in series [3] is 6.00 to 6.60; in series [4] it was over 6.60.
With `O=c1ccn([C@@H]2O[C@](F)(CO)[C@@H](O)[C@H]2F)c(=O)[nH]1` [Compound 101, 1-((2R,3R,4S,5S)-3,5-difluoro-4-hydroxy-5-(hydroxymethyl)tetrahydrofuran-2-yl)pyrimidine-2,4(1H,3H)-dione], the 50% cytotoxic concentration (CC50) at 72 h in series [1] is over 50000 nM. Moreover, the pEC50 in series [2] was under 5.00.
`Nc1ccn([C@@H]2O[C@](F)(COP(=O)(O)OP(=O)(O)OP(=O)(O)O)[C@@H](O)[C@H]2F)c(=O)n1` [Compound 205]: the negative logarithm of the IC50 (pIC50) in series [3] and in series [4] was over 6.60 each time.

The record behind these values is patent US9187515B2, “2′,4′-fluoro nucleosides for the treatment of HCV” (Idenix Pharmaceuticals, Inc., priority 2013, dated 2015).
